Assay results from patent US20260167632A1, “NICOTINAMIDE DERIVATIVES FOR USE IN TREATING DISORDERS ASSOCIATED WITH KCNK13 ACTIVITY” (Cerevance, Inc., priority 2022, published 2026).

biological target: T1, human KCNK13 (Homo sapiens, UniProt Q9HB14); experiment: KCNK13 antagonist activity, thallium flux FLIPR assay in HEK 293 cells stably expressing human KCNK13; assay type: cell-based; details: HEK 293 cells stably expressing human KCNK13, Tl+ sensitive dye, compound 15 min before thallium sulfate, ten point curves; read-out: hKCNK13 IC50
T1 construct: expressed in transfected cells
T1 sequence (Q9HB14 1-408): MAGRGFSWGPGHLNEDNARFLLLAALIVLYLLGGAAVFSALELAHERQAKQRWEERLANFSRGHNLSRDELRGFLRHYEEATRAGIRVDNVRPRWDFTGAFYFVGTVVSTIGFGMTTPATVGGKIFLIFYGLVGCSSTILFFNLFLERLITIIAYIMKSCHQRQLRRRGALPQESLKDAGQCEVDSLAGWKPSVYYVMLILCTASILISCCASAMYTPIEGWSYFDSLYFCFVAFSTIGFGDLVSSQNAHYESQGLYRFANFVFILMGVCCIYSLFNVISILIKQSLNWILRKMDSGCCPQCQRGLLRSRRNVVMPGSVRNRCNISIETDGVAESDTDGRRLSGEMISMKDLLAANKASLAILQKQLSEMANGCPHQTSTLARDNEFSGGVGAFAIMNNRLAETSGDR
Procedure: 4. Biological Efficacy of Compounds of the Invention
KCNK13 antagonist activity was determined by measuring changes in intracellular Thallium (Tl^+) concentrations using a Tl^+ sensitive fluorescent dye. The changes in fluorescent signal were monitored by Fluorescent Imaging Plate Reader (FLIPR™) technology available from Molecular Devices, LLC, US. KCNK13 mediated increases in intracellular Tl^+ concentration were readily detected by addition of a thallium sulfate Stimulus. 24 hours prior to the assay, human embryonic kidney 293 cells (HEK 293 cells) stably expressing human KCNK13 were seeded in cell culture medium in PDL coated black, clear-bottom 384-well plates (commercially available from Corning Inc., 356663) and grown overnight at 37° C., […]. On the day of the assay, cell culture media was removed and cells were loaded with potassium dye (commercially sold by Molecular Devices, LLC, US, R8222) for 1 hour at room temperature in the dark. Test compounds (at 10 point half log concentration response curves from 100 µM) were added to cells for 15 minutes prior to the addition of thallium sulfate to all wells. The IC50 values were determined from ten point concentration response curves. Curves were generated using the average of two wells for each data point.

| IC50 | Compound |
| --- | --- |
| ≤ 1000 nM | CCN(Cc1ccccc1)C(=O)c1cc(Cl)cnc1OC [Example 47, N-benzyl-5-chloro-N-ethyl-2-methoxynicotinamide] |
| ≤ 500 nM | CCN(Cc1ccccc1F)C(=O)c1cc(Cl)cnc1OC [Example 48, 5-chloro-N-ethyl-N-(2-fluorobenzyl)-2-methoxynicotinamide] |
| ≤ 500 nM | CCOc1ncc(Cl)cc1C(=O)N(C)C1CCc2ccccc21 (single isomer, unassigned) [Example 13, 5-chloro-N-(2,3-dihydro-1H-inden-1-yl)-2-ethoxy-N-methylnicotinamide] |
| ≤ 200 nM | COc1ncc(C)cc1C(=O)N(C)Cc1ccc(F)cc1F [Example 72, N-(2,4-difluorobenzyl)-2-methoxy-N,5-dimethylnicotinamide] |
| ≤ 100 nM | CN(Cc1cccc(F)c1F)C(=O)c1cc(Cl)cnc1OC(F)F [Example 102, 5-chloro-N-(2,3-difluorobenzyl)-2-(difluoromethoxy)-N-methylnicotinamide] |
| ≤ 200 nM | O=S(=O)(c1cc(F)cnc1OC(F)F)N1CCc2ccc(F)cc2C1 [Example 111, 2-((2-(difluoromethoxy)-5-fluoropyridin-3-yl)sulfonyl)-7-fluoro-1,2,3,4-tetrahydroisoquinoline] |
| ≤ 500 nM | CN(Cc1cccc(C#N)c1)S(=O)(=O)c1cc(F)cnc1OC(F)F [Example 106, N-(3-cyanobenzyl)-2-(difluoromethoxy)-5-fluoro-N-methylpyridine-3-sulfonamide] |
| ≤ 500 nM | COc1ncc(Cl)cc1C(=O)N(C)C1COc2ccccc21 (single isomer, unassigned) [Example 25, 5-chloro-N-(2,3-dihydrobenzofuran-3-yl)-2-methoxy-N-methylnicotinamide] |
| ≤ 500 nM | COc1ncccc1S(=O)(=O)N1CCOc2ccc(F)cc2C1 [Example 55, 7-fluoro-4-((2-methoxypyridin-3-yl)sulfonyl)-2,3,4,5-tetrahydrobenzo[f][1,4]oxazepine] |
| ≤ 500 nM | CN(C(=O)c1cc(F)cnc1OC(F)F)C1COc2c(F)cccc21 (stereo not drawn) [Example 75, 2-(difluoromethoxy)-5-fluoro-N-(7-fluoro-2,3-dihydrobenzofuran-3-yl)-N-methylnicotinamide] |
| ≤ 200 nM | CC(c1ccccc1F)N(C)C(=O)c1cc(F)cnc1OC(F)F (single isomer, unassigned) [Example 70, 2-(difluoromethoxy)-5-fluoro-N-(1-(2-fluorophenyl)ethyl)-N-methylnicotinamide] |
| ≤ 500 nM | CN(C(=O)c1cc(Cl)cnc1OC(F)F)C1CS(=O)(=O)c2ccccc21 (stereo not drawn) [Example 119, 5-chloro-2-(difluoromethoxy)-N-(1,1-dioxido-2,3-dihydrobenzo[b]thiophen-3-yl)-N-methylnicotinamide] |
| ≤ 500 nM | COc1ncc(F)cc1C(=O)N(C)Cc1cccc(F)c1F [Example 38, N-(2,3-difluorobenzyl)-5-fluoro-2-methoxy-N-methylnicotinamide] |
| ≤ 500 nM | COc1nccc(C)c1C(=O)N(C)Cc1ccc(F)cc1F [Example 73, N-(2,4-difluorobenzyl)-2-methoxy-N,4-dimethylnicotinamide] |
| ≤ 1000 nM | CCN(Cc1cccc(F)c1)S(=O)(=O)c1cc(F)cnc1OC(F)F [Example 109, 2-(difluoromethoxy)-N-ethyl-5-fluoro-N-(3-fluorobenzyl)pyridine-3-sulfonamide] |
| ≤ 200 nM | COc1ncc(Cl)cc1C(=O)N(C)Cc1c(F)cccc1F [Example 117, 5-chloro-N-(2,6-difluorobenzyl)-2-methoxy-N-methylnicotinamide] |
| ≤ 200 nM | CC(c1cccc(F)c1)N(C)C(=O)c1cc(F)cnc1OC(F)F (single isomer, unassigned) [Example 89, 2-(difluoromethoxy)-5-fluoro-N-(1-(3-fluorophenyl)ethyl)-N-methylnicotinamide] |
| ≤ 5000 nM | COc1ncc(F)cc1C(=O)N(C)C(C)c1ccc(F)cc1F (single isomer, unassigned) [Example 68, N-(1-(2,4-difluorophenyl)ethyl)-5-fluoro-2-methoxy-N-methylnicotinamide] |
| ≤ 1000 nM | COc1ncc(Cl)cc1C(=O)N(C)C1CCOc2cc(F)ccc21 (stereo not drawn) [Example 43, 5-chloro-N-(7-fluorochroman-4-yl)-2-methoxy-N-methylnicotinamide] |
| ≤ 200 nM | COc1ncc(F)cc1C(=O)N(C)Cc1ccccc1F [Example 37, 5-fluoro-N-(2-fluorobenzyl)-2-methoxy-N-methylnicotinamide] |

| IC50 | Compound |
| --- | --- |
| ≤ 500 nM | COc1ncc(Cl)cc1C(=O)N(C)C1COc2ccccc21 (single isomer, unassigned) [Example 27, 5-chloro-N-(2,3-dihydrobenzofuran-3-yl)-2-methoxy-N-methylnicotinamide] |
| ≤ 200 nM | COc1cccc(CN(C)C(=O)c2cc(Cl)cnc2OC(F)F)c1 [Example 81, 5-chloro-2-(difluoromethoxy)-N-(3-methoxybenzyl)-N-methylnicotinamide] |
| ≤ 5000 nM | COc1ncc(Cl)cc1C(=O)N(C)C(C)c1cc(F)ccc1C#N (single isomer, unassigned) [Example 60, 5-chloro-N-(1-(2-cyano-5-fluorophenyl)ethyl)-2-methoxy-N-methylnicotinamide] |
| ≤ 100 nM | CN(Cc1cccc(F)c1F)C(=O)c1cc(F)cnc1OC(F)F [Example 93, N-(2,3-difluorobenzyl)-2-(difluoromethoxy)-5-fluoro-N-methylnicotinamide] |
| ≤ 100 nM | CN(Cc1ccc(F)cc1F)C(=O)c1cc(F)cnc1OC(F)F [Example 94, N-(2,4-difluorobenzyl)-2-(difluoromethoxy)-5-fluoro-N-methylnicotinamide] |
| ≤ 500 nM | COc1ncc(F)cc1C(=O)N(C)C1(c2cccc(F)c2)CC1 [Example 34, 5-fluoro-N-(1-(3-fluorophenyl)cyclopropyl)-2-methoxy-N-methylnicotinamide] |
| ≤ 500 nM | CN(C(=O)c1cc(Cl)cnc1OC(F)F)C1COc2ccccc21 (stereo not drawn) [Example 91, 5-chloro-2-(difluoromethoxy)-N-(2,3-dihydrobenzofuran-3-yl)-N-methylnicotinamide] |
| ≤ 1000 nM | C[C@@H](c1cccc(F)c1)N(C)S(=O)(=O)c1cc(F)cnc1OC(F)F [Example 105, (S)-2-(difluoromethoxy)-5-fluoro-N-(1-(3-fluorophenyl)ethyl)-N-methylpyridine-3-sulfonamide] |
| ≤ 200 nM | COc1ncc(F)cc1C(=O)N(C)C(C)c1cccc(F)c1 (single isomer, unassigned) [Example 8, 5-fluoro-N-(1-(3-fluorophenyl)ethyl)-2-methoxy-N-methylnicotinamide] |
| ≤ 1000 nM | CCOc1ncc(Cl)cc1C(=O)N(C)C1CCc2ccccc21 (single isomer, unassigned) [Example 12, 5-chloro-N-(2,3-dihydro-1H-inden-1-yl)-2-ethoxy-N-methylnicotinamide] |
| ≤ 200 nM | COc1ncc(Cl)cc1C(=O)N(C)Cc1cc(F)cc(F)c1 [Example 41, 5-chloro-N-(3,5-difluorobenzyl)-2-methoxy-N-methylnicotinamide] |
| ≤ 200 nM | COc1ncc(C)cc1S(=O)(=O)N1CCc2ccccc2C1 [Example 51, 2-((2-methoxy-5-methylpyridin-3-yl)sulfonyl)-1,2,3,4-tetrahydroisoquinoline] |
| ≤ 500 nM | O=S(=O)(c1cc(F)cnc1OC(F)F)N1CCc2cc(F)cc(F)c2C1 [Example 116] |
| ≤ 500 nM | CN(C(=O)c1cc(Cl)cnc1OC(F)F)C1COc2c(F)cccc21 (stereo not drawn) [Example 92, 5-chloro-2-(difluoromethoxy)-N-(7-fluoro-2,3-dihydrobenzofuran-3-yl)-N-methylnicotinamide] |
| ≤ 1000 nM | CN(Cc1cccc(F)c1)C(=O)c1cc(C2CCC2)cnc1OC(F)F [Example 97, 5-cyclobutyl-2-(difluoromethoxy)-N-(3-fluorobenzyl)-N-methylnicotinamide] |
| ≤ 500 nM | CN(C(=O)c1cc(F)cnc1OC(F)F)C1COc2cc(F)ccc21 (stereo not drawn) [Example 74, 2-(difluoromethoxy)-5-fluoro-N-(6-fluoro-2,3-dihydrobenzofuran-3-yl)-N-methylnicotinamide] |
| ≤ 100 nM | O=S(=O)(c1cc(F)cnc1OC(F)F)N1CCc2ccccc2C1 [Example 110, 2-((2-(difluoromethoxy)-5-fluoropyridin-3-yl)sulfonyl)-1,2,3,4-tetrahydroisoquinoline] |
| ≤ 100 nM | CN(Cc1cccc(F)c1)S(=O)(=O)c1cc(F)cnc1OC(F)F [Example 112, 2-(difluoromethoxy)-5-fluoro-N-(3-fluorobenzyl)-N-methylpyridine-3-sulfonamide] |
| ≤ 500 nM | CN(Cc1cccc(F)c1)C(=O)c1cc(C(F)(F)F)cnc1OC(F)F [Example 96, 2-(difluoromethoxy)-N-(3-fluorobenzyl)-N-methyl-5-(trifluoromethyl)nicotinamide] |
